# Measurements from US12570643B2, “3-aryloxy-3-five-membered heteroaryl propylamine compound, and crystal form and use thereof” (Shanghai Leado Pharmatech Co. Ltd., priority 2019, dated 2026).
# Structures can show the parent of a compound that is named as a salt.
# Columns and labels:
# [1] = Stability study of crystal form A (HPLC purity, XRPD crystal form); format: physicochemical; settings: initial purity 100
# Protocol: About 10 mg of the crystal form A of the hydrochloride of the compound of formula I-1 was weighed and added into an HPLC vial, the bottle was sealed with a parafilm, 10 small holes were pierced in the film, and the vial was placed at 25° C./60% RH or 40° C./75% RH environment for 4 weeks, sampled in the first and fourth weeks respectively. Purity (using HPLC analysis) and crystal form (using X-ray powder diffraction analysis) of the samples were investigated.
# [2] = Hygroscopicity by dynamic moisture absorption (DVS); format: physicochemical; settings: 25° C./80RH
# Protocol: Hygroscopicity was tested by dynamic moisture absorption (DVS) instrument. […] (Refer to the 2015 edition of the Chinese Pharmacopoeia (Guiding Principles for Drug Hygroscopicity Test)). • (2) Stability study of the crystal form A of the hydrochloride of the compound of formula I-1: […]
# [3] = system: acetic acid writhing pain model in mice; experiment: Acetic acid writhing pain model in mice; format: in vivo, ICR mice; settings: acetic acid 1 hour after administration, normal saline group 49 times
# Protocol: ICR mice, male, 22-25 g, were fasted for food 2 h before administration, but can have water. All ICR mice were weighed and randomly grouped with the number of animals>10 per group. […] The mice were administered via intragastric administration according to the weight of mice. 1.5% acetic acid solution (0.1 ml/10 g) was intraperitoneally injected at 1 hour after administration, and the number of times of visceral pain in each group within 30 minutes was observed, the mice were counted once when the abdomen was concave, the trunk and hind legs were extended and the hips were elevated, and the number of times of these phenomena occurred within 30 min was finally counted.
# [4] = Neurocytotoxicity (CCK-8 cytotoxicity test); format: cell-based; settings: human, SH-SY5Y cells
# Protocol: (§1) HepG-2 and SH-SY5Y cells were prepared and placed in 10 cm dish and incubated at 37° C., 5% CO2 in a cell incubator; the cells were digested with trypsinize, resuspended and then counted. Based on a system of 100 μl/well, 8000 cells were transferred to a 96-well plate. The cells were incubated in a 37° C., 5% CO2 cell incubator for 24 hours; a gradient concentration system of compound I-1 (prepared in Example 2) was prepared, 2 times diluted, the system was 100 μl/well. The supernatant in the 96-well plate cell culture system on the first day was removed, and a fresh prepared drug concentration system was added to the corresponding culture plate wells culturing cells (set up duplicate wells). […] After completion of the culture, the supernatant was removed from the cell culture system of the 96-well plate, 100 μl of detection solution (medium containing 10% CCK-8) was add to each well, and incubated in a cell incubator at 37° C. and 5% CO2 for 1 hour, then taken it out and measured the absorbance at 450 nm with a microplate reader. Data were processed, cytotoxicity was calculated, and IC50 was calculated by GraphPad Prism. […]
# (§2) A (dosing): absorbance of the well having cells, CCK-8 solution and drug solution
# (§3) A (blank): absorbance of the well having medium and CCK-8 solution, without cells.
# (§4) A (0 dosing): absorbance of the well having cells and CCK-8 solution, without drug solution […]
# [5] = system: formalin pain model in mice; experiment: Formalin pain model in mice; format: in vivo, C57BL/6 mice; settings: for licking time (s) in phase II (10-60 min): hydrochloride used, mice, blank Vehicle 349.55 ± 43.09
# Description: 150 C57BL/6 mice (male, 9 weeks) were randomly divided into 15 groups with 10 mice for each group, and were used for the analgesic activity test of 3 compounds in the formalin pain model in mice: the compound I-1 group (compound I-1 prepared in Example 2, its hydrochloride was used in the experiment), the S-duloxetine group (its hydrochloride was used in the experiment) and the compound C1 group (compound C1 prepared in Comparative Example 1, its hydrochloride was used in the experiment), respectively. Before the start of the experiment, the mice were allowed to adapt to the experimental environment for 72 hours, during which there was no need to fast for food or water. The tested drugs were administrated by intraperitoneal injection, and the doses were as follows: • The compound I-1 group: blank Vehicle (blank normal saline control), 0.1 mg/kg, 0.5 mg/kg, 1 mg/kg, 5 mg/kg and 10 mg/kg; • The S-duloxetine group: blank Vehicle (blank normal saline control), 1 mg/kg, 5 mg/kg, 10 mg/kg and 20 mg/kg; • The Compound C1 group: blank Vehicle (blank normal saline control), 0.1 mg/kg, 0.5 mg/kg, 1 mg/kg, 5 mg/kg and 10 mg/kg.
# After the administration, the mice were placed in a transparent, ventilated plexiglass cylinder, and 1 hour later, 20 μl of 4% formalin solution was injected into the left hind foot plantar of each group of mice with a micro-injector, and foot pain response in mice were recorded in real time with a miniature camera. The length of time of licking the left foot was used as an indicator of pain response, the licking time were observed and recorded during two periods of 0-10 min (phase I) and 10-60 min (phase II) respectively, for statistical analysis, and the half effective dose (ED50) of the 3 compounds were calculated: ED50 refers to the drug dose that reduces the licking time by half compared with the blank control group. The smaller the ED50 value is, the lower the effective analgesic dose of the compound is and the better its analgesic effect is.
# SNL model in rat = experiment: SNL model in rat, mechanical hyperalgesia test; format: in vivo, SD rats; settings: 10 mg/kg intragastric, 1 hour after administration, hydrochloride used; control group 3.967 ± 0.775
# Protocol: SD rats were taken for surgery, male, SPF grade, mass 150 g-180 g. The surgical procedure was performed aseptically. The animals were anesthetized with sodium pentobarbital (50 mg/kg, intraperitoneal injection). The surgical area of the waist of animals was shaved, and the skin was disinfected three times with iodophor and 70% ethanol. Start the operation after the skin was dry. A longitudinal incision was made in the posterior part of the sacral bone of the animal's waist with a scalpel to expose the left paravertebral muscles, and the muscle tissue was separated with a distractor to expose the vertebra. The left spinal nerves L5 and L6 were separated, ligated with 6-0 silk thread, and the wounds were sutured. After the surgery, the animals were placed on an electric blanket and injected subcutaneously with 5 mL normal saline to prevent dehydration. When the animal was completely awake (free to move), put the animal back into the cage.
# After the surgery, the animals were adapted in the experimental environment for 15 minutes/day for 3 days.
# After administration, mechanical hyperalgesia test was performed. The rats were placed individually in a plexiglas box with a grid at the bottom of the box to ensure that the feet of the rats can be tested. Rats would adapt for 15 minutes before the test. […] The rapid paw withdrawal of the animal during the test was recorded as a pain response. The paw withdrawal of the animal when the test fiber left the animal's skin was also recorded as a pain response. If the animal moved or walked, it will not be recorded as a pain response, the test should be repeated. […]
# Mechanical hyperalgesia was expressed as the paw withdrawal threshold (PWT) in the behavioral test of rats, which was calculated according to the following equation: 50% response threshold (g)=(10(^Xf+kδ))/10,000 • Xf=the final test fiber value used in the test • K=table value • δ=Average difference
# Data were collected using Excel software and analyzed using Prism 6.01 (Graph pad software, Inc.) software.
# [6] = system: hot plate induced pain model in rat; experiment: Hot plate induced pain model in rat; format: in vivo, Sprague-Dawley rats; settings: 30 mg/kg intraperitoneal, hydrochloride used
# Protocol: Male, mature and unmated healthy Sprague-Dawley rats were selected, and the temperature of the cold/hot plate (product model: PE34, US IITC) was adjusted to a constant temperature of 53±0.1° C., and rats with painful response such as foot licking, foot shaking or slight jumping within 5-10 s were screened (abandoned those who evaded and jumped). […] The tested compound was freshly formulated on the day of administration. A 0.9% NaCl normal saline solution was prepared as a vehicle, an appropriate amount of the test compound was added to the required volume of normal saline, and the mixture was fully suspended to prepare the drug at a concentration of 1 mg/ml. […] The latency of thermal pain was measured at 0.5 h, 1 h and 2 h after drug administration. To avoid scalding the animals on the hot plate, the maximum latency was set to 30 s. The analgesic effect of each compound was evaluated using the maximum possible effect (MPE), i.e. MPE %=[(Post drug latency-baseline latency)/(30−baseline latency)]×100. Statistics of MPE % at different time points.
# HepG2 cells = experiment: Hepatocyte toxicity (CCK-8 cytotoxicity test); format: cell-based; settings: Homo sapiens, 72 hours, read-out: hepatotoxicity (IC50)
# Protocol: as §1, §2, §3, §4
smiles,measurement,setting,value
CNCC[C@@H](Oc1cccc2ccoc12)c1cccs1 [Crystal form A of the hydrochloride],Purity (area %),"[1]; 25° C./60% RH, 1 week",100 area %
same,Purity (area %),"[1]; 25° C./60% RH, 4 weeks",100 area %
same,Purity (area %),"[1]; 40° C./75% RH, 1 week",100 area %
same,Purity (area %),"[1]; 40° C./75% RH, 4 weeks",100 area %
same,"weight change (hygroscopicity, DVS)",[2],less than 0.2%
CNCC[C@H](Oc1cccc2ccccc12)c1cccs1 [S-duloxetine],number of visceral pains (writhing reactions) within 30 min,[3]; 10 mg/kg intragastric,27 times
same,number of visceral pains (writhing reactions) within 30 min,[3]; 20 mg/kg intragastric,21 times
same,IC50 at 72 h,[4],28.6 µM
same,licking time (s) in phase II (10-60 min),[5]; 1 mg/kg intraperitoneal,259.97 ± 64.44 s
same,licking time (s) in phase II (10-60 min),[5]; 5 mg/kg intraperitoneal,230.49 ± 41.31 s
same,licking time (s) in phase II (10-60 min),[5]; 10 mg/kg intraperitoneal,162.83 ± 36.27 s
same,licking time (s) in phase II (10-60 min),[5]; 20 mg/kg intraperitoneal,72.27 ± 17.29 s
same,ED50,"[5]; Mus musculus, ip, intraperitoneal, phase II (10-60 min), dose that halves licking time vs blank control, read-out: analgesic potency ED50 in phase II pain",8 mg/kg
same,PWT,SNL model in rat,6.519 ± 2.226 g
same,MPE %,[6]; 0.5 h,5.75 ± 5.74%
same,MPE %,[6]; 1 h,7.44 ± 5.12%
same,MPE %,[6]; 2 h,13.53 ± 4.99%
same,IC50,HepG2 cells,33.3 µM
